These results are taken from patent US5214034A, “Catechol derivatives, and preventive and remedial preparations for regressive disorders in the central nervous system containing the same” (priority 1986, dated 1993).

The test system of data set [1] is NGF. The data set is described as follows: NGF production in the central nervous system of normal rats by intraperitoneal injection (NGF content of brain tissue, ELISA). Format: in vivo, rat (Wistar male). The note with it: Table 7, i.p., three times every other day. The procedure:
The derivative (A), e.g. R=Two H, R1 =H and R2 =n-propyl (hereinafter referred to as 4-n-propylcatechol), was administered to normal rats by intraperitoneal injection, and the effect was examined.
4-n-Propylcatechol was administered by intraperitoneal injection 4 times every other day in a dosage of 5 mg/kg. The rats were killed two days after the final administration. The NGF content of each parts in brain was measured. The content was compared with those of control group which was administered saline alone.
A variety of the derivative was administered three times every other day. The content of NGF in the forebrain after 48 hours and 7 days from the final administration was measured and illustrated in Table 7.
Wistar male rats (9-10-week old, 200-250 g of weight) were intraperitoneally injected with the test derivative in a volume of 0.5 ml as a saline solution, emulsion or suspension. Dose and administration times were the same as above. The rats were killed by a hard spinal blow two days after the final administration. Each parts of brain were dissected and subjected to the following treatment under ice cooling.
Each parts of brain were weighed and homogenized for 30 strokes by a Dounce type homogenizer in a homogenization buffer (0.1 M Tris-HCl, containing 2% bovine serum albumin fraction V, 2% gelatin, 1.0 M NaCl, 0.02% NaN3, 2 mM EDTA and 2.6 kiu/ml of aprotinin, pH 7.6) at a concentration of 10% (W/V) (only septum 5% (W/V)). Each homogenate was centrifuged at 100,000 xg for 10 minutes, and 50 μl of supernatant was added with the same amount of a dilution buffer (0.1 M Tris-HCl containing 2% bovine serum albumin fraction V, 0.05% NaN3 and 20 mM CaCl2, pH 7.6). Determination was conducted in accordance with a method of S. Furukawa et al. by using a high sensitivity ELISA system on 8-NGF which was described in J. Neurochem., 40, 734-744 (1983). Lower limit of determination is 0.25 pg/ml. Data are indicated as a mean value ±SE on the NGF content of tissue (pg/mg wet tissue) of five rats.
In general terms: An ELISA detects its analyte on a solid surface through an enzyme-linked reagent.

In data set [2] the test system is rats injected with kainic acid at basal forebrain. The data set is described as follows: Promotion of recovery from retention deficits by repeated learning (passive avoidance). The data set is classed as in vivo, rat (male Sprague-Dawley). On the set-up: key: latency in seconds to enter dark chamber, capped at 300 s. As to conditions: Table 9, i.p. 5 mg/kg before each trial. Here is the method:
(§1) Effects of the derivative on the behavioral parameters of rats injected with kainic acid at basal forebrain were characterized with regard to both prevention against deficits in retention of passive avoidance learning and promotion of recovery from damaged state by repeated learning.
(§2) Male Sprague-Dawley rats (9-10 weeks of age, 200-250 g of weight) were anesthetized with Nembutal (50 mg/kg, i.p.) and placed in a stereotaxic apparatus. Bilateral lesions of the ventral globus pallidus were made by direct stereotaxic application (0.7 mm posterior to bregma, 2.7 mm lateral to the midline, and 7.0 mm ventral to the brain surface) of 0.25 μg of kainic acid in 1 μl of PBS (pH 7.4) to prepare disordered models. Controls were sham-operated rats injected with PBS in place of kainic acid solution.
(§3) Passive avoidance procedures were performed by using a two chambered step-through passive avoidance apparatus with a guillotine door. A 3 mA scrambled shock was delivered to the dark floor grids for 3 seconds as a punishment. Habituation trial was conducted prior to the acquisition trial. Each rats were placed in the illuminated chamber and the guillotine door was raised after 10 seconds. As soon as the rats entered into the dark chamber, the door was lowered. The rats were removed after 10 seconds and returned to their home cages. […] The acquisition trial was performed similarly to the habituation trial. In the former case, a rat was placed in the illuminated room and the door was opened after 10 seconds. The door was shut immediately after the rat entered into the dark room, a scrambled foot shock was applied, and then the animal was removed. The latency to enter the dark chamber after opening the door was recorded for 300 seconds in the retention of passive avoidance. The latency exceeding 300 seconds was calculated as 300 seconds.
The promoting effects on the recovery by repeated training from the damaged state of retention were acessed by using 30 rats injected with kainic acid. Rats were subjected to the acquisition trial 10 days after the operation. The rats were equally divided into 3 groups after 24 hours and injected intrapenitroneally with 5 mg/kg of 4-n-propylcatechol and the derivative (A) (R=--CO--, R=H, R2 =n-propyl) respectively as a saline solution. The remaining 10 rats were intraperitoneally injected with saline alone. The first retention trial was carried out two days after the injection. Rats which entered into the dark chamber within 30 seconds were punished by the scrambled foot shock as a training. On the next day, all animals were administered again the same amount of test derivative or saline. These animals were subjected to the second retention trial two days after the second injection.
Retention trials, punishments and additional administrations were repeated as mentioned above four times in all.

The nature of data set [3]: Acute toxicity (LD50). The note with it: mouse, in vivo. The procedure: The catechol derivative having normal type saturated lower alkyl groups on the ring was administered by intravenous injection (i.v.), intraperitoneal injection (i.p.) or oral route (p.o.) to male ddy mice of 4-week old. The LD50 values (mg/kg) were measured by an ordinary method.
Data set [4] concerns rats injected with kainic acid at basal forebrain / sham-operated rats. As to the kind of experiment: Retention of passive avoidance learning: prevention of retention deficits. The note with it: Table 8, i.p. 5 mg/kg on days 1, 4, 7. Format: in vivo, rat (male Sprague-Dawley). Here is the method: as §1, §2, §3
The preventive effects on deficits in retention were estimated by using 60 rats. Thirty rats were injected with kainic acid and other 30 rats were sham-operated with PBS.
Each groups of animals were equally divided into three groups which were received intraperitoneally 5 mg/kg of the derivative (A) (R=2H, R1 =H, R2 =n-propyl, that is, 4-n-propylcatechol), derivative A (R=--CO--, R1 =H, R2 =n-propyl) and saline respectively as a saline solution on one, four and seven days after the operation.
Table 8 illustrates the results obtained by conducting the acquisition trial 10 days after the operation and the retention test after 24 hours.

SMILES strings stand for the structures. Read-outs that look alike come from different tables or passages of the source.

`CCCc1ccc2oc(=O)oc2c1` [R = --CO--, R1 = H, R2 = n-Propyl]: the “NGF content after 48 hr.” value in data set [1] (48 hours after final administration) is listed as 1.66 ± 0.23 pg/mg wet tissue of frontal co. In data set [1] (7 days after final administration), the “NGF content after 7 days” value is 2.23 ± 0.39 pg/mg wet tissue of frontal co. Besides, in data set [2], the “Mean latency, 1st retention trial” value is reported as 46 ± 13. In addition, the “Mean latency, 4th retention trial” value in data set [2] (**P < 0.01) was 284 ± 15. For the same compound, the “Mean latency, 2nd retention trial” value in data set [2] (*P < 0.05) is 167 ± 31. In addition, the “Mean latency, 3rd retention trial” value in data set [2] (*P < 0.05) is on record as 236 ± 28. Besides, the LD50 (commonly the dose at which mortality reaches 50%) was over 1000 mg/kg in data set [3] (ip, intraperitoneal injection, read-out: LD50 i.p.); over 250 mg/kg in data set [3] (intravenous injection, read-out: LD50 i.v.); over 2500 mg/kg in data set [3] (oral route, read-out: LD50 p.o.). The “Animals with more than 150 sec of latency” value is reported as 4 in 10 animals in data set [4] (rats operated with kainic acid) and 10 in 10 animals in data set [4] (sham-operated rats). The Mean latency was found to be 152 ± 29 s in data set [4] (rats operated with kainic acid, *P < 0.01 vs control) and 291 ± 7 s in data set [4] (sham-operated rats).
